The values that follow come from patent US20210284742A1, “METHODS OF TREATING OR PREVENTING MUCORMYCOSIS” (University of Maryland, Baltimore, priority 2018, published 2021).

The subject of assay [1] is A549 cells infected with R. delemar. Nature of the assay: R. delemar-induced A549 cell damage (Pierce LDH assay). The assay is classed as cell-based, human. The settings on record: for R. delemar-induced damage of A549 alveolar epithelial cells (LDH assay): pre-treated 1 h, inhibitors present throughout, Inh III 10, AG1478 10 μM, AG825 50 μM, 24 h infection (FIG. 6). The protocol: Measurement of R. delemar-induced host cell damage. R. delemar-induced A549 cell damage was quantified using the Pierce LDH Assay with slight modifications to the manufacturer's protocol. Briefly, A549 cells were grown in 96-well tissue culture plates for 18-24 hours. […] For controls, host cells will be incubated with DMSO (the solvent used to reconstitute the inhibitor) or 25 μg/ml of mouse IgG antibody in parallel. After 24 hours of incubation at 37° C., 50 μl of the cell culture supernatant was collected from uninfected, infected, and fungi-only control wells and transferred to a 96 well plate to assay for LDH activity. Lysis buffer was added to all infected wells and incubated for 45 min at 37° C. After lysis, 50 μl of cell culture supernatant was transferred to a 96 well plate and used for the LDH Assay Kit per protocol. LDH release was calculated as follows: % Cytotoxicity=[Experimental release−Fungal Cells Spontaneous Control−Host Cells Spontaneous Control]/[Host Cell Maximum Control−Fungal Cells Maximum Control−Host Cells Spontaneous Control]×100. LDH is a cytosolic enzyme but will be released into the cell culture medium upon cell membrane damage. The amount of extracellular LDH is proportional to the amount of cell damage.
(§1) R. delemar-induced A549 cell damage was quantified using the Pierce LDH assay, with slight modifications to the manufacturer's protocol. Briefly, A549 cells were grown in 96-well tissue culture plates for 18 to 24 h. Cells were then pretreated for 1 h with inhibitor and infected with 1×10^6-2×10^6 germlings suspended in 150 μl F-12K plus 10% FBS. For controls, host cells were incubated with the appropriate amount of diluent used to reconstitute the in parallel. After 24 h of incubation at 37° C., 50 μl of the cell culture supernatant was collected from uninfected, infected, and fungus-only control wells and transferred to a 96-well plate to assay for LDH activity. Lysis buffer was added to all infected wells, and the mixture was incubated for 45 min at 37° C. After lysis, 50 μl of cell culture supernatant was transferred to a 96-well plate and used for the LDH assay kit per the protocol. LDH release was calculated as follows: % cytotoxicity=[(experimental release−fungal cell spontaneous control−host cell spontaneous control)/(host cell maximum control−fungal cell maximum control−host cell spontaneous control)]×100. LDH is a cytosolic enzyme but will be released into the cell culture medium upon cell membrane damage. The amount of extracellular LDH is proportional to the amount of cell damage.

The subject of assay [2] is A549 alveolar epithelial cells infected with R. delemar spores. Nature of the assay: Measurement of host cell endocytosis of R. delemar by A549 cells (Uvitex differential fluorescence). To be noted: for ability of A549 cells to endocytose R. delemar spores: Ahr inhibitor or Src inhibitor. The assay is classed as cell-based, human. As for the experimental part: Measurement of host cell endocytosis. 12-mm glass coverslips were seeded with A549 alveolar epithelial cells. […] For controls, host cells will be incubated with DMSO (the solvent used to reconstitute the inhibitor) or 25 μg/ml mouse IgG antibody in parallel. Host cells were then infected with 2×10^5 R. delemar spores. After incubation for 3 h, cells were fixed in 3% paraformaldehyde and stained for 1 h with 1% Uvitex, which specifically binds to chitin in the fungal cell wall. After washing with PBS, coverslips were mounted on a glass slide with a drop of ProLong Gold anti-fade reagent (Molecular Probes) and sealed. The total number of cell-associated organisms (i.e. fungi adhering to the monolayer) per high-powered field were determined by phase-contrast microscopy. The same field will be examined by epifluorescence microscopy, and the number of brightly fluorescent, uninternalized fungi were determined. The number of endocytosed organisms was calculated by subtracting the number of fluorescent fungi from the total number of visible fungi. At least 400 organisms were counted per treatment group in at least 15 different fields per coverslip. Experiments were performed in duplicate or triplicate on at least two separate days.
12-mm glass coverslips in 12 well dishes will be seeded with A549 alveolar epithelial cells. Cells were then pre-treated 1 h with inhibitors. For controls, host cells were incubated with the appropriate amount of diluent used to reconstitute the inhibitor in parallel. Host cells were then infected with 2×10^6 Rdelemar. After incubation for 3 h, cells were fixed in 3% paraformaldehyde and stained for 1 h with 1% Uvitex, which specifically binds to chitin in the fungal cell wall. After washing with PBS, coverslips were mounted on a glass slide with a drop of ProLong Gold anti-fade reagent (Molecular Probes) and sealed. The total number of cell-associated organisms (i.e., fungi adhering to the monolayer) per high-powered field was determined by phase-contrast microscopy. The same exact field was examined by epifluorescence microscopy, and the number of brightly fluorescent, uninternalized fungi will be determined. The number of endocytosed organisms is calculated by subtracting the number of fluorescent organisms from the total number of visible organisms. At least 400 organisms were counted in at least 15 different fields per coverslip. Experiments were performed in duplicate on separate days. Data will be expressed as median f interquartile range.

Assay [3] concerns A549 cells infected with C. bertholletiae. As to the kind of experiment: C. bertholletiae-induced damage of A549 cells (LDH assay). The assay is classed as cell-based, human. The settings on record: 25 μM Mifepristone overnight and/or 25 μM Gefitinib 1 h, 24 h infection (FIG. 14).
Assay [4] has as its system A549 cells infected with R. oryzae. As to the kind of experiment: R. oryzae-induced damage of A549 cells (LDH assay). The class given is cell-based, human. The settings on record: 25 μM Mifepristone overnight and/or 25 μM Gefitinib 1 h, 24 h infection (FIG. 14). As for the experimental part: as §1, with “Cells were then pretreated for 1 h with inhibitor and infected with 1×10^6-2×10^6 germlings suspended in 150 μl F-12K plus 10% FBS.” left out

Assay [5] deals with A549 cells infected with M. circinelloides. Nature of the assay: M. circinelloides-induced damage of A549 cells (LDH assay). The settings on record: 25 μM Mifepristone overnight and/or 25 μM Gefitinib 1 h, 24 h infection (FIG. 14). The assay is classed as cell-based, human.
Assay [6] deals with A549 cells infected with L. corymbifera. Nature of the assay: L. corymbifera-induced damage of A549 cells (LDH assay). The settings on record: 25 μM Mifepristone overnight and/or 25 μM Gefitinib 1 h, 24 h infection (FIG. 14). The class given is cell-based, human.
The test system of assay [7] is HUVECs infected with R. delemar. The settings on record: inhibition of PDGFR phosphorylation; cited from earlier work.
Another assay concerns R. delemar. As to the kind of experiment: Neutropenic mouse model of pulmonary mucormycosis, survival. The assay is classed as in vivo, mice. As for the experimental part:
Murine models of Mucormycosis. Male ICR mice (20-25 g from Envigo) were immunosuppresed by cyclophosphamide (200 mg/kg administered intraperotenually [i.p]) and cortisone acetate (500 mg/kg, adminstered subcutaneously) given on days −2, +3, and +9 relative to infection. […] To control for bacterial infection, immunosuppressed mice received 50 mg/L Baytrial (enrofloxacin: Bayer, Leverkusen, Germany) ad libitum on Day −3 thorough Day 0, after which Baytril was replaced with daily ceftazidime (5 mg/mouse) treatment adminstered subcutaneously through day+13 days post infection. Mice were infected with 2.5×10^5 spores of R. delemar 99-880 in 25 μL PBS given intratracheally as previously described (Luo G, Gebremariam T, Lee H, French S W, Wiederhold N P, Patterson T F, Filler S G, Ibrahim A S. 2013. Efficacy of liposomal amphotericin B and posaconazole in intratracheal models of murine mucormycosis. Antimicrobial agents and chemotherapy 57:3340-7). […] Placebo mice received DMA:PEG300. Survival of mice served as the primary endpoint with moribund mice humanely euthanized. To determine effect of treatment on tissue fungal burden mice were immunosuppressed and infected as above. Gefitinib treatment started 4 post infection and continued through Day +3. On Day +4, mice were sacrificed and lungs and brains, representing primary and secondary target organs (Luo G, Gebremariam T, Lee H, French S W, Wiederhold N P, Patterson T F, Filler S G, Ibrahim A S. 2013. Efficacy of liposomal amphotericin B and posaconazole in intratracheal models of murine mucormycosis. Antimicrobial agents and chemotherapy 57:3340-7), were collected and processed for tissue fungal burden by qPCR (Ibrahim A S, Bowman J C, Avanessian V, Brown K, Spellberg B, Edwards J E, Jr., Douglas C M. 2005. Caspofungin inhibits Rhizopus oryzae 1,3-beta-D-glucan synthase, lowers burden in brain measured by quantitative PCR, and improves survival at a low but not a high dose during murine disseminated zygomycosis. Antimicrobial agents and chemotherapy 49:721-7.) Values are expressed as Log10 spore equivalents per gram tissue.
Statistical Analyses. In vitro experiments were performed in triplicate on two or three separate days. Data were expressed as median±interquartile range. Treatment groups were compared to controls using the Wilcoxon rank-sum test and P values <0.05 were considered significant. For the murine studies, survival of mice was analyzed using the Log Rank test, whereas differences in tissue fungal burden were analyzed by the Wilcoxon Rank Sum test using Graph pad Prism 6. P values of <0.05 were considered significant.

In the case of `COc1cc(/C=C(\C#N)C(N)=O)cc(CSc2nc3ccccc3s2)c1O` [AG825], the “R. delemar-induced damage of A549 alveolar epithelial cells (LDH assay)” value in assay [1] was “greater reduction in damage”.

As for `COc1cc2ncnc(Nc3cccc(Cl)c3)c2cc1OC` [AG1478], in assay [1], the “R. delemar-induced damage of A549 alveolar epithelial cells (LDH assay)” value is given as “greater reduction in damage”.

In the case of `Cc1ccccc1N=Nc1ccc(NC(=O)c2ccnn2C)c(C)c1` [CH-223191], the “ability of A549 cells to endocytose R. delemar spores” value in assay [2] was “Neither of the inhibitors altered”.

Regarding `CC#C[C@]1(O)CC[C@H]2[C@@H]3CCC4=CC(=O)CCC4=C3[C@@H](c3ccc(N(C)C)cc3)C[C@@]21C` [Mifepristone], in assay [3], the C. bertholletiae-induced damage result was “a significant decrease in damage was not seen”. In addition, the R. oryzae-induced damage result in assay [4] was “a significant decrease in damage was not seen”. In assay [5], the M. circinelloides-induced damage entry was “a significant decrease in damage was not seen”. The “R. delemar invasion / endocytosis” value in assay [2] (Example 3, 25 μM Mifepristone overnight and/or 25 μM Gefitinib 1 h, 3 h infection (FIG. 13)) was “reduction”. In assay [6], the L. corymbifera-induced damage entry is given as “significantly decreased”. In assay [1] (Example 3, Mifepristone 25 / Gefitinib 25, 24 h infection, vs vehicle (FIG. 12)), the “R. delemar-induced damage of alveolar epithelial cells (LDH assay)” value is reported as “decrease”.

On to `COc1cc2ncnc(N3CCN(C(=O)Nc4ccc(Oc5ccccc5)cc4)CC3)c2cc1OC` [PDGFR tyrosine kinase inhibitor III], for which, in assay [1], the “R. delemar-induced damage of A549 alveolar epithelial cells (LDH assay)” value is reported as “modestly but significantly reduces”. Moreover, the “R. delemar-induced damage of HUVECs” value in assay [7] is on record as “significantly reduces”.

`CC[C@@H]([C@H](C)O)n1ncn(-c2ccc(N3CCN(c4ccc(OC[C@@H]5CO[C@@](Cn6cncn6)(c6ccc(F)cc6F)C5)cc4)CC3)cc2)c1=O` [posaconazole] returned a 18-day survival in the assay with R. delemar (delayed treatment beginning 30 h post infection for 6 consecutive days, 10 mg/kg gefitinib, 20 mg/kg posaconazole or both) of 0%. The “protection from pulmonary mucormycosis, delayed administration” value with R. delemar (treatment delayed for 30 h post infection, administered alone) was “did not”.

For the compound “EGF [epidermal growth factor, EGFR ligand]”, in assay [1] (A549 cells pretreated (and cotreated) with EGF 1 h prior to 24 h infection (FIG. 15)), the “R. delemar-induced damage with EGF addition (LDH assay)” value is given as “no increase in damage was observed”.

Regarding Src Kinase Inhibitor I I, in assay [2], the “ability of A549 cells to endocytose R. delemar spores” value is on record as “Neither of the inhibitors altered”.
